Laboratory results taken from patent publication US20230278972A1, “SUBSTITUTED HALOALKYL SULFONANILIDE HERBICIDES” (FMC Corporation, priority 2020, published 2023).

Legend:
Type in all cases: in vivo
[1] = test system: kochia (Bassia scoparia); assay: Test A postemergence, kochia; conditions: Postemergence, 0 to 100 scale (0 no effect, 100 complete control); for Plant response rating, Kochia: 125 g ai/ha; for Kochia plant response rating: 500 g ai/ha, visual injury vs untreated controls after approx. 10 days
In short: (§1)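 Pots: loam soil/sand blend. Pre: directed soil spray at planting. Post: plants 2–10 cm, 1–2 leaf stage. Formulation: non-phytotoxic solvent + surfactant.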

[2] = test system: kochia (Bassia scoparia); assay: Test A preemergence, kochia; conditions: Preemergence; for Kochia plant response rating: 125 g ai/ha, visual injury on 0 to 100 scale (0 no effect, 100 complete control), approximately 10 days; for Plant response rating, Kochia: 500 g ai/ha, 0 to 100 scale (0 no effect, 100 complete control)
In short: as §1

[3] = test system: Ryegrass, Italian (Italian ryegrass, Lolium multiflorum); assay: Test A postemergence, Ryegrass, Italian; conditions: Postemergence, 0 to 100 scale (0 no effect, 100 complete control); for Plant response rating, Ryegrass, Italian: 125 g ai/ha; for Ryegrass, Italian plant response rating: 500 g ai/ha, visual injury vs untreated controls after approx. 10 days
In short: as §1

[4] = test system: Foxtail, Giant (giant foxtail, Setaria faberi); assay: Test A preemergence, Foxtail, Giant; conditions: Preemergence; for Foxtail, Giant plant response rating: 125 g ai/ha, visual injury on 0 to 100 scale (0 no effect, 100 complete control), approximately 10 days; for Plant response rating, Foxtail, Giant: 500 g ai/ha, 0 to 100 scale (0 no effect, 100 complete control)
In short: as §1

[5] = test system: ragweed (common ragweed, Ambrosia artemisiifolia); assay: Test A postemergence, ragweed; conditions: Postemergence, 0 to 100 scale (0 no effect, 100 complete control); for Plant response rating, Ragweed: 125 g ai/ha; for Ragweed plant response rating: 500 g ai/ha, visual injury vs untreated controls after approx. 10 days
In short: as §1

[6] = test system: pigweed (Amaranthus retroflexus); assay: Test A postemergence, pigweed; conditions: Postemergence, 0 to 100 scale (0 no effect, 100 complete control); for Plant response rating, Pigweed: 125 g ai/ha; for Pigweed plant response rating: 500 g ai/ha, visual injury vs untreated controls after approx. 10 days
In short: as §1

[7] = test system: pigweed (Amaranthus retroflexus); assay: Test A preemergence, pigweed; conditions: for Pigweed plant response rating: 125 g ai/ha, visual injury on 0 to 100 scale (0 no effect, 100 complete control), approximately 10 days; for Plant response rating, Pigweed: 500 g ai/ha, 0 to 100 scale (0 no effect, 100 complete control)
In short: (§2)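 Preemergence: pigweed seeds in loam soil–sand blend received a directed soil spray of test chemicals in a non-phytotoxic solvent with surfactant. Postemergence: barnyardgrass, wheat and galium in pots of the same soil, 2 to 10 cm tall at one- to two-leaf stage, sprayed with the same formulation.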

[8] = test system: Ryegrass, Italian (Italian ryegrass, Lolium multiflorum); assay: Test A preemergence, Ryegrass, Italian; conditions: Preemergence; for Ryegrass, Italian plant response rating: 125 g ai/ha, visual injury on 0 to 100 scale (0 no effect, 100 complete control), approximately 10 days; for Plant response rating, Ryegrass, Italian: 500 g ai/ha, 0 to 100 scale (0 no effect, 100 complete control)
In short: as §1

[9] = test system: barnyardgrass (Echinochloa crus-galli); assay: Test A postemergence, barnyardgrass; conditions: Postemergence, 0 to 100 scale (0 no effect, 100 complete control); for Plant response rating, Barnyardgrass: 125 g ai/ha; for Barnyardgrass plant response rating: 500 g ai/ha, visual injury vs untreated controls after approx. 10 days
In short: as §2

[10] = test system: barnyardgrass (Echinochloa crus-galli); assay: Test A preemergence, barnyardgrass; conditions: Preemergence; for Barnyardgrass plant response rating: 125 g ai/ha, visual injury on 0 to 100 scale (0 no effect, 100 complete control), approximately 10 days; for Plant response rating, Barnyardgrass: 500 g ai/ha, 0 to 100 scale (0 no effect, 100 complete control)
In short: as §1

[11] = test system: ragweed (common ragweed, Ambrosia artemisiifolia); assay: Test A preemergence, ragweed; conditions: Preemergence; for Ragweed plant response rating: 125 g ai/ha, visual injury on 0 to 100 scale (0 no effect, 100 complete control), approximately 10 days; for Plant response rating, Ragweed: 500 g ai/ha, 0 to 100 scale (0 no effect, 100 complete control)
In short: as §1

[12] = test system: wheat (Triticum aestivum); assay: Test A postemergence, wheat; conditions: Postemergence, 0 to 100 scale (0 no effect, 100 complete control); for Plant response rating, Wheat: 125 g ai/ha; for Wheat plant response rating: 500 g ai/ha, visual injury vs untreated controls after approx. 10 days
In short: as §2

[13] = test system: Foxtail, Giant (giant foxtail, Setaria faberi); assay: Test A postemergence, Foxtail, Giant; conditions: Postemergence, 0 to 100 scale (0 no effect, 100 complete control); for Plant response rating, Foxtail, Giant: 125 g ai/ha; for Foxtail, Giant plant response rating: 500 g ai/ha, visual injury vs untreated controls after approx. 10 days
In short: as §1

[14] = test system: blackgrass (Alopecurus myosuroides); assay: Test A postemergence, blackgrass; conditions: Postemergence, 0 to 100 scale (0 no effect, 100 complete control); for Plant response rating, Blackgrass: 125 g ai/ha; for Blackgrass plant response rating: 500 g ai/ha, visual injury vs untreated controls after approx. 10 days
In short: as §1

[15] = test system: galium (catchweed bedstraw, Galium aparine); assay: Test A postemergence, galium; conditions: Postemergence, 0 to 100 scale (0 no effect, 100 complete control); for Plant response rating, Galium: 125 g ai/ha; for Galium plant response rating: 500 g ai/ha, visual injury vs untreated controls after approx. 10 days
In short: as §2

[16] = test system: corn (Zea mays); assay: Test A postemergence, corn; conditions: Postemergence, 0 to 100 scale (0 no effect, 100 complete control); for Plant response rating, Corn: 125 g ai/ha; for Corn plant response rating: 500 g ai/ha, visual injury vs untreated controls after approx. 10 days
In short: as §1

Cc1cc(C)c(C2=NOC3(CCOCC3)C2)cc1NS(=O)(=O)C(F)(F)F [Compound 177]
Plant response rating, Kochia [1]: 20
Kochia plant response rating [1]: 70
Kochia plant response rating [2]: 100
Plant response rating, Kochia [2]: 100
Plant response rating, Ryegrass, Italian [3]: 40
Ryegrass, Italian plant response rating [3]: 90
Foxtail, Giant plant response rating [4]: 70
Plant response rating, Foxtail, Giant [4]: 100
Plant response rating, Ragweed [5]: 90
Ragweed plant response rating [5]: 90
Plant response rating, Pigweed [6]: 60
Pigweed plant response rating [6]: 90
Pigweed plant response rating [7]: 80
Plant response rating, Pigweed [7]: 100
Ryegrass, Italian plant response rating [8]: 100
Plant response rating, Ryegrass, Italian [8]: 100
Plant response rating, Barnyardgrass [9]: 70
Barnyardgrass plant response rating [9]: 90
Barnyardgrass plant response rating [10]: 80
Plant response rating, Barnyardgrass [10]: 100
Ragweed plant response rating [11]: 70
Plant response rating, Ragweed [11]: 90
Plant response rating, Wheat [12]: 20
Wheat plant response rating [12]: 80
Plant response rating, Foxtail, Giant [13]: 10
Foxtail, Giant plant response rating [13]: 60
Plant response rating, Blackgrass [14]: 0
Blackgrass plant response rating [14]: 30
Plant response rating, Galium [15]: 90
Galium plant response rating [15]: 90
Plant response rating, Corn [16]: 0
Corn plant response rating [16]: 50

Cc1cc(C)c(N(S(=O)(=O)C(F)(F)F)S(=O)(=O)C(F)(F)F)cc1C1=NOC2(CCOCC2)C1 [Compound 178]
Plant response rating, Kochia [1]: 20
Kochia plant response rating [1]: 70
Kochia plant response rating [2]: 90
Plant response rating, Kochia [2]: 100
Plant response rating, Ryegrass, Italian [3]: 0
Ryegrass, Italian plant response rating [3]: 30
Foxtail, Giant plant response rating [4]: 90
Plant response rating, Foxtail, Giant [4]: 100
Plant response rating, Ragweed [5]: 40
Ragweed plant response rating [5]: 80
Plant response rating, Pigweed [6]: 60
Pigweed plant response rating [6]: 90
Pigweed plant response rating [7]: 100
Plant response rating, Pigweed [7]: 100
Ryegrass, Italian plant response rating [8]: 90
Plant response rating, Ryegrass, Italian [8]: 100
Plant response rating, Barnyardgrass [9]: 40
Barnyardgrass plant response rating [9]: 90
Barnyardgrass plant response rating [10]: 90
Plant response rating, Barnyardgrass [10]: 100
Ragweed plant response rating [11]: 80
Plant response rating, Ragweed [11]: 90
Plant response rating, Wheat [12]: 10
Wheat plant response rating [12]: 30
Plant response rating, Foxtail, Giant [13]: 0
Foxtail, Giant plant response rating [13]: 20
Plant response rating, Blackgrass [14]: 0
Blackgrass plant response rating [14]: 0
Plant response rating, Galium [15]: 80
Galium plant response rating [15]: 90
Plant response rating, Corn [16]: 0
Corn plant response rating [16]: 10
